Laboratory results as given in US20230365590A1, “BIPHENYL COMPOUND AS IMMUNOMODULATOR, PREPARATION METHOD THEREFOR AND APPLICATION THEREOF” (SHENZHEN CHIPSCREEN BIOSCIENCES CO., LTD., priority 2020, published 2023).

The molecules below were run on PD-1/PD-L1 mediated inhibitory signal to T cell activation (CHO-PD-L1-CD3L cells and Jurkat-PD-1-NFAT cells) (assay: Blocking of PD-1/PD-L1 mediated inhibitory signal to T cell activation at cell level (NFAT luciferase reporter, co-culture)). Details: Homo sapiens, CHO-PD-L1-CD3L / Jurkat-PD-1-NFAT co-culture, 6 h.
Type: cell-based
Method: In order to test the effect of interaction between PD-1 and PD-L1 on T cell activation signal in immune response, CHO-PD-L1-CD3L cells stably expressing human PD-L1 molecule and anti-CD3 single-chain antibody (ScFv) and Jurkat-PD-1-NFAT cells stably expressing human PD-1 molecule and NFAT reporter gene were constructed. When two kinds of cells are incubated together, anti-CD3 ScFv on the CHO cell surface and membrane CD3 molecule of Jurkat cell combine to transmit an activation signal into Jurkat cell. However, due to the binding of PD-L1 on the CHO cell surface and PD-1 molecule on the Jurkat cell surface at the same time, a signal for inhibiting activation is transmitted inward, so that luciferase reporter gene cannot be expressed. When an immunocheckpoint antibody or small-molecule inhibitor is added, the binding of PD-1 and PD-L1 is blocked, the NFAT pathway activated by CD3 ScFv antibody and CD3 cross-linking mediated T cell activation signal is no longer affected by the inhibitory signal, and the downstream luciferase reporter gene starts to be expressed. Chemiluminescence signals proportional to reporter gene activation can be detected by adding a catalytic substrate.
CHO-PD-L1-CD3L cells expressing human PD-L1 molecule and anti-CD3 single-chain antibody (ScFv) and Jurkat-PD-1-NFAT cells stably expressing human PD-1 molecule and NFAT reporter gene were all independently constructed and presented by Dr. Chen Bo (KeyMed Biosciences (Chengdu) Co., Ltd. Puromycin (Cat # 540411) and Hygromycin B (Cat # V900372) for stable culture of transfected cells were purchased from Sigma, PMA (Cat # P1585) was purchased from Sigma, and the anti human PD-L1 antibody (Cat # GMP-A066) was purchased from Novoprotein Company. The Luciferase substrate solution (Cat # E6485) and the luciferase-specific cell lysate 5×(Cat # E1531) were purchased from Promega company. The fluorescence detector Tecan (Spark 10M) was purchased from Tecan Company in Switzerland.
Main Process of Experiment • (1) On the day before the experiment, 100 μL of CHO-PD-L1-CD3L cells (about 4×10^4 cells/well) were inoculated at 37° C. overnight in a 96-well cell culture plate, and the culture medium was DMEM/F12 containing 10% FBS, 8 μg/mL Puromycin and 200 μg/mL Hygromycin B. • (2) The test compound was diluted with 0.1% PBST to obtain solutions with different concentration gradients, and then added into 96-well plates and incubated for 30 min in advance. The RPMI 1640 complete medium containing 10% FBS, 8 μg/mL Puromycin and 200 μg/mL Hygromycin B was used to adjust the Jurkat-PD-1-NFAT cell count to 2×10^5 cells/mL, and 100 ng/mL PMA (10 mg/mL storage solution prepared with DMSO) was added to amplify the T cell activation signal. 100 μL of the Jurkat-PD-1-NFAT cells were added into each well of the 96-well plates for co-culture. • (3) During the test reaction, control groups were set, including the solvent control without adding the test compound and the positive control with the addition of the […] in the experimental system. All tests were conducted by use of multiple holes. • (4) Incubation was continued at 37° C. for 6 h, 40 μL of 5×cell lysate was added directly, the solution was mixed well and placed at room temperature for 10 min to completely lyse cells. 50 μL of lysed cell solution was transferred to a fluorescence detection plate, 30 μL of luciferase substrate solution was then added, and the chemiluminescence detection program was immediately selected on the fluorescence detector for determination. • (5) Calculation formula of the inhibition rate of the test compound against T cell activation signal at the cell level: The inhibition rate against T cell activation signal (%)=(original chemiluminescence value of the test hole−solvent control)/(the highest original chemiluminescence value determined in the compound test hole−solvent control)×100%. […]

| Structure (SMILES) | EC50 [µM] |
| --- | --- |
| COCC12CCC(CCN3CCc4c(nc(C(=O)Nc5cccc(-c6cccc(NC(=O)c7nc8c(n7C)CCN(CCC79CCC(C(=O)O)(CC7)C9)C8)c6Cl)c5F)n4C)C3)(CC1)C2 [Compound I-9, 4-(2-(2-((2-chloro-2′-fluoro-3′-(5-(2-(4-(methoxymethyl)bicyclo[2.2.1]heptan-1-yl)ethyl)-1-methyl-4,5,6,7-tetrahydro-1H-imidazo [4,5-c]pyridine-2-carboxamido)-[1,1′-biphenyl]-3-yl)carbamoyl)-1-methyl-1,4,6,7-tetrahydro-5H-imidazo[4,5-c]pyridin-5-yl)ethyl)bicyclo[2.2.1]heptane-1-carboxylic acid] | 0.00679 |
| COCC12CCC(CN3CCc4c(nc(C(=O)Nc5cccc(-c6cccc(NC(=O)c7nc8c(n7C)CCN(CCC79CCC(C(=O)O)(CC7)C9)C8)c6Cl)c5Cl)n4C)C3)(CC1)C2 [Compound I-8, 4-(2-(2-((2,2′-dichloro-3′-(5-((4-(methoxymethyl)bicyclo[2.2.1]heptan-1-yl)methyl)-1-methyl-4,5,6,7-tetrahydro-1H-imidazo[4,5-c]pyridine-2-carboxamido)-[1, 1′-biphenyl]-3-yl)carbamoyl)-1-methyl-1,4,6,7-tetrahydro-5H-imidazo[4,5-c]pyridin-5-yl)ethyl)bicyclo[2.2.1]heptane-1-carboxylic acid] | 0.0303 |
| COCC12CCC(CCCN3CCc4c(nc(C(=O)Nc5cccc(-c6cccc(NC(=O)c7nc8c(n7C)CCN(CCC79CCC(C(=O)O)(CC7)C9)C8)c6Cl)c5C)n4C)C3)(CC1)C2 [Compound I-2, 4-(2-(2-((2-chloro-3′-(5-(3-(4-(methoxymethyl)bicyclo[2.2.1]heptan-1-yl)propyl)-1-methyl-4,5,6,7-tetrahydro-1H-imidazo[4,5-c]pyridine-2-carboxamido)-2′-methyl-[1,1′-biphenyl]-3-yl)carbamoyl)-1-methyl-1,4,6,7-tetrahydro-5H-imidazo[4,5-c]pyridin-5-yl)ethyl)bicyclo[2.2.1]heptane-1-carboxylic acid] | 0.0181 |
| COCC12CCC(CCN3CCc4c(nc(C(=O)Nc5cccc(-c6cccc(NC(=O)c7nc8c(n7C)CCN(CC79CCC(C(=O)O)(CC7)C9)C8)c6Cl)c5C)n4C)C3)(CC1)C2 [Compound I-12, 4-((2-((2-chloro-3′-(5-(2-(4-(methoxymethyl)bicyclo[2.2.1]heptan-1-yl)ethyl)-1-methyl-4,5,6,7-tetrahydro-1H-imidazo[4,5-c]pyridine-2-carboxamido)-2′-methyl-[1,1′-biphenyl]-3-yl)carbamoyl)-1-methyl-1,4,6,7-tetrahydro-5H-imidazo[4,5-c]pyridin-5-yl)methyl)bicyclo[2.2.1]heptane-1-carboxylic acid] | 0.0383 |
| COCC12CCC(CCN3CCc4c(nc(C(=O)Nc5cccc(-c6cccc(NC(=O)c7nc8c(n7C)CCN(CCC79CCC(C(=O)O)(CC7)C9)C8)c6Cl)c5C)n4C)C3)(CC1)C2 [Compound I-5, 4-(2-(2-((2-chloro-3′-(5-(2-(4-(methoxymethyl)bicyclo[2.2.1]heptan-1-yl)ethyl)-1-methyl-4,5,6,7-tetrahydro-1H-imidazo[4,5-c]pyridine-2-carboxamido)-2′-methyl-[1,1′-biphenyl]-3-yl)carbamoyl)-1-methyl-1,4,6,7-tetrahydro-5H-imidazo [4,5-c]pyridin-5-yl)ethyl)bicyclo[2.2.1]heptane-1-carboxylic acid] | 0.0267 |
| COCC12CCC(CCN3CCc4c(nc(C(=O)Nc5cccc(-c6cccc(NC(=O)c7nc8c(n7C)CCN(CCC79CCC(C(=O)O)(CC7)C9)C8)c6C)c5Cl)n4C)C3)(CC1)C2 [Compound I-4, 4-(2-(2-((2′-chloro-3′-(5-(2-(4-(methoxymethyl)bicyclo[2. 2.1]heptan-1-yl)ethyl)-1-methyl-4,5,6,7-tetrahydro-1H-imidazo[4,5-c]pyridine-2-carboxamido)-2-methyl-[1 ,1′-biphenyl]-3-yl)carbamoyl)-1-methyl-1,4,6,7-tetrahydro-5H-imidazo[4,5-c]pyridin-5-yl)ethyl)bicyclo[2.2.1]heptane-1-carboxylic acid] | 0.0283 |
| COCC12CCC(CCCN3CCc4c(nc(C(=O)Nc5cccc(-c6cccc(NC(=O)c7nc8c(n7C)CCN(CCC79CCC(C(=O)O)(CC7)C9)C8)c6C)c5Cl)n4C)C3)(CC1)C2 [Compound I-1, 4-(2-(2-((2′-chloro-3′-(5-(3-(4-(methoxymethyl)bicyclo[2. 2.1]heptan-1-yl)propyl)-1-methyl-4,5,6,7-tetrahydro-1H-imidazo[4,5-c]pyridine-2-carboxamido) -2-methyl-[1,1′-biphenyl]-3-yl)carbamoyl)-1-methyl-1,4,6,7-tetrahydro-5H-imidazo[4,5-c]pyridin-5-yl)ethyl)bicyclo[2.2.1]heptane-1-carboxylic acid] | 0.0339 |
| Cn1c(C(=O)Nc2cccc(-c3cccc(NC(=O)c4nc5c(n4C)CCN(CCC46CCC(C(=O)O)(CC4)C6)C5)c3Cl)c2F)nc2c1CCN(CCC13CCC(COC(F)F)(CC1)C3)C2 [Compound I-10, 4-(2-(2-((2-chloro-3′-(5-(2-(4-((difluoromethoxy)methyl)bicyclo[2.2.1]heptan-1-yl)ethyl)-1-methyl-4,5,6,7-tetrahydro-1H-imidazo[4,5-c]pyridine-2-carboxamido)-2′-fluoro-[1,1′-biphenyl]-3-yl)carbamoyl)-1-methyl-1,4,6,7-tetrahydro-5H-imidazo[4,5-c]pyridin-5-yl)ethyl)bicyclo[2.2.1]heptane-1-carboxylic acid] | 0.0355 |
| Cn1c(C(=O)Nc2cccc(-c3cccc(NC(=O)c4nc5c(n4C)CCN(CCC46CCC(C(=O)O)(CC4)C6)C5)c3Cl)c2Cl)nc2c1CCN(CCC13CCC(COC(F)F)(CC1)C3)C2 [Compound I-7, 4-(2-(2-((2,2′-dichloro-3′-(5-(2-(4-((difluoromethoxy)methyl)bicyclo[2.2.1]heptan-1-yl)ethyl)-1-methyl-4,5,6,7-tetrahydro-1H-imidazo[4,5-c]pyridine-2-carboxamido)-[1,1′-biphenyl]-3-yl)carbamoyl)-1-methyl-1,4,6,7-tetrahydro-5H-imidazo[4,5-c]pyridin-5-yl)ethyl)bicyclo[2.2.1]heptane-1-carboxylic acid] | 0.0392 |
| COCC12CCC(CCN3CCc4c(nc(C(=O)Nc5cccc(-c6cccc(NC(=O)c7nc8c(n7C)CCN(CCC79CCC(C(=O)O)(CC7)C9)C8)c6Cl)c5C#N)n4C)C3)(CC1)C2 [Compound I-11, 4-(2-(2-((2-chloro-2′-cyano-3′-(5-(2-(4-(methoxymethyl)bicyclo[2.2.1]heptan-1-yl)ethyl)-1-methyl-4,5,6,7-tetrahydro-1H-imidazo[4,5-c]pyridine-2-carboxamido)-[1,1′-biphenyl]-3-yl)carbamoyl)-1-methyl-1,4,6,7-tetrahydro-5H-imidazo[4,5-c]pyridin-5-yl)ethyl)bicyclo[2.2.1]heptane-1-carboxylic acid] | 0.0263 |
| CCOCC12CCC(CCN3CCc4c(nc(C(=O)Nc5cccc(-c6cccc(NC(=O)c7nc8c(n7C)CCN(CCC79CCC(C(=O)O)(CC7)C9)C8)c6C)c5Cl)n4C)C3)(CC1)C2 [Compound I-3, 4-(2-(2-((2′-chloro-3′-(5-(2-(4-(ethoxymethyl)bicyclo[2.2.1]heptan-1-yl)ethyl)-1-methyl-4,5 ,6,7-tetrahydro-1H-imidazo[4,5-c]pyridine-2-carboxamido)-2-methyl-[1,1′-biphenyl]-3-yl)carbamoyl)-1-methyl-1,4,6,7-tetrahydro-5H-imidazo[4,5-c]pyridin-5-yl)ethyl)bicyclo[2.2.1]heptane-1-carboxylic acid] | 0.017 |
